# Results taken from patent publication US11110070B2 (priority 2015, dated 2021).
# “Also recorded” adds a separate entry of the source.
# Columns and labels:
# [1] = system: 129S6/SvEvTac mice; assay: FST after reinstatement; assay type: in vivo
# Description: The FST was administered as previously described (Richardson-Jones et al., 2010; Brachman et al., 2016).
# [2] = system: 129S6/SvEvTac mice; assay: 3-shock CFC, extinction and reinstatement paradigm; assay type: in vivo
# Description: A single injection of saline (0.9% NaCl) far ketamine (30 mg kg^−1) (Ketaset III, Ketamine HCl injection, Fort Dodge Animal Health, Forth Dodge, Iowa) was administered once during the course of each experiment.
# A 3-shock CFC paradigm was administered as previously described (Drew et al., 2010; Denny et al., 2014). Mice were placed in the conditioning chamber and received 3 shocks 180, 240, and 300 s later (2 s, 0.75 mA) and were removed 15 s following the last shock. All sessions were scored for freezing using FreezeView2http://actimetrics.com/downloads/freezeframe/).
# Extinction began 4 days after the initial 3-shock CFC procedure, or 4 days after the reinstatement procedure. Each group of mice was subjected to 2 extinction trials per day. Each extinction trial lasted 30 min, with an intertrial interval of at least 2 h. For each extinction trial, mice were placed in the same box used for CFC without receiving foot shocks. All trials were scored for freezing. The freezing presented throughout the text represents averaged freezing behavior for the first 3 min of each extinction trial.
# Reinstatement took place in the same Coulbourn fear conditioning box, but with altered cues. A 1-shock CFC paradigm was administered as previously described (Drew et al., 2010; Denny et al., 2012; Denny et al., 2014), with the exception of two experiments in which the mice were administered 3 shocks.
# [3] = system: 129S6/SvEv mice; assay: FST after prophylactic ketamine or ketamine metabolites (FIG. 15); assay type: in vivo; conditions: prophylactic K-injected vs Sal-injected mice
# [4] = system: 129S6/SvEvTac mice; assay: Elevated plus maze (EPM) in SD experiments; assay type: in vivo; conditions: ketamine 30 mg kg^−1 before SD; Ctrl and SD groups
# Description: Testing was performed as previously described (A14). Briefly, the maze is a plus-cross-shaped apparatus consisting of four arms, two open and two enclosed by walls, linked by a central platform at a height of 50 cm from the floor. Mice were individually placed in the center of the maze facing an open arm and were allowed to explore the maze for 5 min. The time spent in and the number of entries into the open arms was used as an anxiety index. For the 12956/SvEv experiments, videos were scored using behavioral tracking software (TopScan, CleverSys, Reston, Va.). For the C57BL/6Ntac experiments, all parameters were measured using a videotracker (EPM3C. Bioseb, Vitrolles, France).
# [5] = system: C57BL/6NTac mice; assay: Sucrose splash test (ST) in CORT model; assay type: in vivo; conditions: ketamine 90 mg kg^−1 or fluoxetine, before CORT
# Description: Experiment 5 (Pre-ketamine and pre-fluoxetine corticosterone (CORT)): C57BL16NTac mice were injected with ketamine (10, 30, 90 mg kg^−1, i.p.) 1 week before the start of CORT, or administered fluoxetine (18 mg kg^−1 per day) in the drinking water for 3 weeks before the start of CORT. Ketamine was purchased from Merial (100 mg/ml stock solution). Fluoxetine hydrochloride (160 μg/mL, equivalent to 18 mg kg^−1 per day in the drinking water) was purchased from Anawa Trading (Zurich, Switzerland) and dissolved in 0.45% hydroxypropyl-β-cyclodextrin (β-CD) (Sigma-Aldrich, Saint-Quentin Fallavier, France) solution. Following ketamine or fluoxetine treatment, CORT was administered for 3 weeks in the drinking water. CORT (4-pregnen-11b-DIOL-3 20-DIONE 21-hemisuccinate) (35 μg/ml) from. Sigma Aldrich (Saint-Quentin Fallavier, France) was dissolved in vehicle (0.45% β-CD). Control animals received vehicle (0.45% β-CD) throughout the duration of the experiment.
# This test consisted of squirting 200 μl of a 10% sucrose solution on the mouse's snout. The grooming duration was quantified using Stopwatch+ (Center for Behavioral Neuroscience, Georgia State University).
# [6] = system: 129S6/SvEvTac mice; assay: Social interaction with a novel mouse after SD; assay type: in vivo; conditions: ketamine 30 mg kg^−1 before SD
# Description: Mice were placed into a large open field containing 2 upside-down wire mesh pencil cups. One pencil cup served as a novel object or empty container. The other pencil cup contained a novel 129S6/SvEv male mouse. Mice were placed in the middle of the open field arena and allowed to explore for 10 min. Sessions were videotaped and the first 5 min were later analyzed using behavioral tracking software (TopScan, CleverSys, Reston, Va.).
# [7] = system: animals; conditions: in vivo, ip; cited from earlier work
# [8] = system: hypothalamic-pituitary-adrenal (HPA) axis; assay: Corticosterone enzyme immunoassay after a brief stressor (SD model); assay type: in vivo; conditions: SD mice; ketamine 10, 30 or 90 mg kg^−1 before SD; vs Ctrl-Sal
# Description: Mice were exposed to a minor stressor for 10 min and then returned to their home cages. Blood was collected from awake mice 70 min after the start of the stressor from the retro-orbital sinus using hematocrit tubes. Blood was then transferred to Eppendorf tubes pre-coated with 5 μl 0.5 M EDTA, placed on ice, and immediately spun down to obtain plasma for subsequent EIA. Plasma was stored at −80° C. until analysis. EIA was performed using a DetectX Corticosterone EIA Kit (#K014-H1, Arbor Assays).
# [9] = system: chronic PTSD; conditions: intravenous infusion; compared with midazolam; cited from earlier work
# [10] = ketamine 1 week prior to 3-shock reinstatement
# [11] = ketamine 1 week before CFC, vs saline
smiles,measurement,setting,value
"CNC1(c2ccccc2Cl)CCCCC1=O (racemic) [ketamine, (RS)-2-(2-chlorophenyl)-2-(methylamino)cyclohexanone]",time immobile in the FST,[1]; ketamine 1 week prior to 1-shock reinstatement,equal levels of immobility
same,time immobile in the FST,[1]; [10],equal levels of immobility in the FST
same,freezing during 3-shock CFC training,"[2]; ketamine 30 mg kg^−1 1 week before CFC, vs saline",comparable levels of freezing
same,fear response (freezing) during CFC training,[2]; ketamine 1 month before CFC,did not result in a decreased fear response
same,freezing behavior during extinction,[2]; ketamine 1 month before CFC,did not alter freezing behavior during extinction
same,"fear, first trial of extinction vs first trial of re-extinction (E1 vs. E9)",[2]; [11],significantly decreased levels of fear
same,freezing during the first extinction exposure,[2]; [11],significantly less freezing behavior
same,fear expression during extinction training,"[2]; ketamine 1 week following CFC, 1 week prior to extinction",did not alter fear expression during extinction training; also recorded: equal levels of freezing behavior during all extinction trials
same,"subsequent fear expression (reinstatement, secondary extinction)",[2]; ketamine 1 week prior to 1-shock reinstatement (24 h after the last extinction trial),did not alter subsequent fear expression; also recorded: equal levels of freezing behavior during reinstatement and during secondary extinction trials
same,"fear expression (reinstatement, secondary extinction)",[2]; [10],did not alter fear expression; also recorded: comparable levels of fear behavior
same,fear expression during the first re-exposure,[2]; ketamine 1 h after 3-shock reinstatement,buffered fear expression during the first re-exposure
same,freezing throughout secondary extinction,"[2]; ketamine 1 h after 3-shock reinstatement, vs saline",transiently decreased freezing throughout extinction; also recorded: decreased fear
same,freezing during extinction,[2]; ketamine 1 h before CFC,froze comparably during extinction; also recorded: equal levels of freezing behavior during almost all extinction trials
same,subsequent fear expression (secondary extinction trials),[2]; ketamine 1 h following 1-shock reinstatement,did not alter subsequent fear expression; also recorded: comparable levels of fear behavior during secondary extinction trials
same,fear expression during extinction,[2]; ketamine 1 h following 3-shock CFC training,did not alter fear expression during extinction; also recorded: equal levels of freezing behavior during all extinction trials
same,fear expression during extinction training,[2]; ketamine 1 h prior to extinction,did not alter fear expression during extinction training; also recorded: equal levels of freezing behavior during all extinction trials
same,freezing behavior during extinction,[2]; ketamine 24 h before CFC,did not alter
same,subsequent fear expression (secondary extinction trials),[2]; ketamine 24 h following 3-shock reinstatement,did not alter subsequent fear expression; also recorded: comparable levels of freezing behavior
same,immobility in day 2 of the FST,[3],significantly less immobility
same,time in the closed arms of EPM,[4],no significant effect of ketamine in either group
same,latency to groom in the ST (chronic CORT-induced depressive-like phenotype),[5],prevented the chronic CORT-induced depressive-like phenotype; also recorded: decreased the latency to groom
same,social interaction with a novel mouse,[6],did not find an effect
same,reaction time to the hot plate test,[7],increased reaction time to the hot plate test
same,levels of CORT following a brief stressor,[8],did not differ from Ctrl-Sal mice
same,PTSD symptom severity,[9],significant and rapid reduction in PTSD symptom severity
